Patent publication US20240424115A1, “LONG-ACTING INTERLEUKIN-15 RECEPTOR AGONISTS AND RELATED IMMUNOTHERAPEUTIC COMPOSITIONS AND METHODS” (Nektar Therapeutics, priority 2017, published 2024)

Key:
YAC-1 cells = assay type: cell-based
Protocol: NK cell-mediated cytotoxicity against target tumor cells was evaluated in vitro using a flow cytometry-based assay. NK cells were isolated from spleens of Balb/c mice using negative-selection magnetic cell isolation (Mouse NK cell enrichment kit, Stemcell Technologies) and used as effector cells. For in vitro studies, isolated NK cells were stimulated with Conjugate 1 at concentrations of 3000, 1000, 300, 30, 3, or 0 (unstimulated) ng/ml overnight in a humidified incubator at 37° C., 5% CO2 prior to use in the cytotoxicity assay. For in vivo studies, mice were dosed with 0.3 mg/kg Conjugate 1, and splenic NK cells were isolated 24, 48, and 72 h post-dose and used directly in the cytotoxicity assay.
YAC-1 T-cells labeled with PKH26 were used as target cells. To monitor NK cell cytotoxicity, NK and YAC-1 cells were co-cultured at various effector: target ratios (50:1, 25:1, and 12.5:1) for 4 hours at 37° C., 5% CO2, then stained with 7-AAD for 10 min to label dead cells. Cells were immediately analyzed using flow cytometry. Lysed target cells were identified as PKH26+7-AAD+.
Balb/c mice (n=2/group) were treated with Conjugate 1 (0.006, 0.03 or 0.3 mg/kg), IL-15 (1 mg/kg) or vehicle control. After treatment, spleens were isolated 24, 72, and 96 hours for NK cell isolation. […]

[1] = Single dose PK study in rats (plasma concentration); assay type: in vivo; conditions: Sprague Dawley rats, single i.v. 10, 75 and 150 μg/kg
Protocol: Following administration, blood was collected at days 1-7 post administration (with multiple samples collected over the first 24 hours following administration). […]

CT-26 cells = assay: CT-26 lung metastasis model; conditions: for lung nodule inhibition: Example 19, one week apart
Protocol: At day 0, 6-8 week-old female Balb/c mice were inoculated with 1×10^5 mouse CT-26 cells by tail vein injection. On day 1, post 24 h of CT-26 cells being administered, mice were divided into ten groups. […] Each group was assigned one intervention as follows: vehicle, phosphate buffered saline (Group A); native IL-15 alone (Group B); Conjugate 2 at a dose of 0.03 mg/kg (Group C); Conjugate 2 at a dose of 0.1 mg/kg (Group D); Conjugate 2 at a dose of 0.3 mg/kg (Group E); Conjugate 2 at a dose of 1.0 mg/kg (Group F); Conjugate 2 at a dose of 3.0 mg/kg (Group G); for Conjugate 1: vehicle, phosphate buffered saline (Group H); Conjugate 1 at a dose of 0.03 mg/kg (Group I) and Conjugate 1 at a dose of 0.3 mg/kg (Group J). Animals were dosed at days 1, 5, and 10.
Post 13 days from the date of CT-26 tumor cells administration, mice were anesthetized, and blood and spleen cells were collected for further analysis of immunophenotype markers, while lungs were fixed for 24-48 h in Bouins solution containing picric acid and formaldehyde.
The number of lung tumor nodules were counted under a dissection per each lung and mean of lung nodules for each group was determined. The statistical significance was also obtained between the vehicle group vs intervention groups using unpaired students t test.
Balb/c mice received tail vein injection of 1×10^5 CT-26 colorectal carcinoma cells. The following day, mice (n=9/group) were treated weekly, twice, with Conjugate 1 (0.03 or 0.3 mg/kg) or vehicle control. Five days after the second injection, mice were humanely sacrificed and lung nodules were counted.
CT-26 mice (n=7-11/group) were injected with anti-asialo GM1 to deplete NK cells or two different controls (lgG or PBS), then injected with 1×10^5 CT-26 tumor cells. Mice were then treated with Conjugate 2 at 0.3 mg/kg dosed on days 1, 5 and 10 post tumor cell injection or vehicle control. Mice were sacrificed and lung nodules were counted three days after the last day of treatment.

mono-mPEG-SBA40K-IL-15 [Conjugate 1]
NK cytotoxicity (percent specific lysis of YAC-1 cells) after treatment of mice (YAC-1 cells): elevation of NK cytotoxicity superior in magnitude and duration | half-life [1]: approximately 18 hours | survival (CT-26 cells; 0.3 mg/kg, followed 32 days post tumor cell injection, vs vehicle): increased survival significantly | reduction in lung metastases in comparison to vehicle (CT-26 cells; Example 13, i.v. days 1, 5, 10, dose not stated): 85% | lung nodule inhibition (CT-26 cells; 0.03 mg/kg dosed twice): 40% | lung nodule inhibition (CT-26 cells; 0.3 mg/kg dosed twice): 80%
